Measurements: ChEMBL document CHEMBL4680314, “Discovery of potent glycogen synthase kinase 3/cholinesterase inhibitors with neuroprotection as potential therapeutic agent for Alzheimer's disease” (Bioorg Med Chem, 2021)
Active and inactive are the calls of the source. No cut-off for these calls is given here.

Assays:
[1] = molecular target: Glycogen synthase kinase-3 alpha (Homo sapiens, UniProt P49840); assay: Inhibition of GSK3alpha (unknown origin) by ATP competitive based analysis
[2] = molecular target: Glycogen synthase kinase-3 beta (Mus musculus) (UniProt Q9WV60); assay: Inhibition of GSK3beta in mouse N2a cells overexpressing human tau assessed as tau phosphorylation at Ser396 residue at 0.074 uM incubated for 6 hrs by Western blot analysis (reference value: […] %); format: cell-based; set-up: scale not given: the % may be the effect or the level left
BV-2 [3] = assay: Anti-inflammatory activity in mouse BV-2 cells assessed as reduction in LPS-induced IL-1beta production incubated for 1 hr followed by LPS stimulation and measured after 24 hrs by ELISA; format: functional, cell-based; settings: dose 2-8 µM, time 25.0 hrs
[4] = molecular target: Mitogen-activated protein kinase 3 (Homo sapiens, UniProt P27361); assay: Inhibition of ERK1 (unknown origin) by ATP competitive based analysis
[5] = Volume of distribution in Sprague-Dawley rat at 5 mg/kg, iv measured upto 24 hrs by LC-MS/MS analysis; format: ADME, organism-based; settings: in vivo
Homo sapiens [6] = species on record: Homo sapiens; assay: Selectivity index, ratio of IC50 for ERK2 (unknown origin) to IC50 for GSK-3 beta (unknown origin) by ATP competitive based analysis
[7] = molecular target: Glycogen synthase kinase-3 beta (Mus musculus) (UniProt Q9WV60); assay: Inhibition of GSK3beta in mouse N2a cells overexpressing human tau assessed as reduction in tau phosphorylation at Ser396 residue at 6 uM incubated for 6 hrs by Western blot analysis relative to control; format: cell-based
Homo sapiens [8] = species on record: Homo sapiens; assay: Selectivity index, ratio of IC50 for […] IC50 for GSK-3 beta (unknown origin) by ATP competitive based analysis
BV-2 [9] = assay: Anti-inflammatory activity in mouse BV-2 cells assessed as reduction in LPS-induced TNFalpha production at 8 uM incubated for 1 hr followed by LPS stimulation and measured after 24 hrs by ELISA relative to control; format: functional; settings: time 25 hrs
[10] = AUC (0 to 24 hrs) in Sprague-Dawley rat at 10 mg/kg, po measured upto 24 hrs by LC-MS/MS analysis; format: ADME, organism-based; set-up: route oral, dose 10 mg/kg, time <=24; settings: in vivo
BV-2 [11] = assay: Anti-inflammatory activity in mouse BV-2 cells assessed as reduction in LPS-induced TNFalpha expression at 4 uM incubated for 1 hr followed by LPS stimulation and measured after 24 hrs by immunofluorescence based laser confocal microscopy; format: functional, cell-based; settings: time 25.0 hrs
Homo sapiens [12] = species on record: Homo sapiens; assay: Selectivity index, ratio of IC50 for CDK9 (unknown origin) to IC50 for GSK-3 beta (unknown origin) by ATP competitive based analysis
[13] = molecular target: T1, Glycogen synthase kinase-3 beta (Homo sapiens, UniProt P49841); assay: Inhibition of GSK3beta (unknown origin) by ATP competitive based analysis
[14] = Toxicity in ICR mouse assessed as reduction in body weight at 15 mg/kg, po; format: organism-based; settings: in vivo
[15] = molecular target: Glycogen synthase kinase-3 beta (Mus musculus) (UniProt Q9WV60); assay: Inhibition of GSK3beta in mouse N2a cells overexpressing human tau assessed as tau phosphorylation at Ser396 residue at 0.22 uM incubated for 6 hrs by Western blot analysis (reference value: […] %); format: cell-based; set-up: scale not given: the % may be the effect or the level left
[16] = molecular target: T1, Glycogen synthase kinase-3 beta; assay: biochemical
Description: Inhibition of recombinant human N-terminal His6-tagged GSK3beta H350L mutant expressed in baculovirus infected Sf21 cells using prephosphorylated polypeptide as substrate incubated for 1 min followed by substrate addition and measured after 30 mins by Kinase-Glo luminescence assay

Acetylcholinesterase = Acetylcholinesterase (Homo sapiens, UniProt P22303); assay: Inhibition of human recombinant AChE expressed in HEK293 cells using acetylthiocholine iodide as substrate incubated for 10 mins by Ellman's method; format: cell-based
[17] = Half life in Sprague-Dawley rat at 10 mg/kg, po measured upto 24 hrs by LC-MS/MS analysis; format: ADME, organism-based; settings: in vivo
[18] = MRT (0 to t) in Sprague-Dawley rat at 10 mg/kg, po measured upto 24 hrs by LC-MS/MS analysis; format: ADME, organism-based; settings: in vivo
Homo sapiens [19] = species on record: Homo sapiens; assay: Selectivity index, ratio of IC50 for CDK4 (unknown origin) to IC50 for GSK-3 beta (unknown origin) by ATP competitive based analysis
Homo sapiens [20] = species on record: Homo sapiens; assay: Selectivity index, ratio of IC50 for GSK3alpha (unknown origin) to IC50 for GSK-3 beta (unknown origin) by ATP competitive based analysis
Homo sapiens [21] = species on record: Homo sapiens; assay: Selectivity index, ratio of IC50 for CDK1 (unknown origin) to IC50 for GSK-3 beta (unknown origin) by ATP competitive based analysis
[22] = molecular target: Mitogen-activated protein kinase 14 (Homo sapiens, UniProt Q16539); assay: Inhibition of p38MAPK alpha (unknown origin) by ATP competitive based analysis
Mus musculus = assay: Cognitive enhancing effect in ICR mouse model of scopolamine-induced cognitive dysfunction assessed as reduction in memory impairment by measuring increase in number of virtual platform crossings at 15 mg/kg, po by Morris water maze test; format: functional, organism-based
[23] = molecular target: Mitogen-activated protein kinase 12 (Homo sapiens, UniProt P53778); assay: Inhibition of p38MAPK gamma (unknown origin) by ATP competitive based analysis
BV-2 [24] = assay: Cytotoxicity against mouse BV-2 cells assessed as effect on cell morphology; format: cell-based
[25] = Toxicity in ICR mouse model of scopolamine-induced cognitive dysfunction assessed as effect on locomotor activity by measuring effect on swimming speed at 15 mg/kg, po by Morris water maze test; format: organism-based; settings: in vivo
[26] = molecular target: Mitogen-activated protein kinase 13 (Homo sapiens, UniProt O15264); assay: Inhibition of p38MAPK delta (unknown origin) by ATP competitive based analysis
[27] = molecular target: Mitogen-activated protein kinase 10 (Homo sapiens, UniProt P53779); assay: Inhibition of JNK3 (unknown origin) by ATP competitive based analysis
Homo sapiens [28] = species on record: Homo sapiens; assay: Selectivity index, ratio of IC50 for CDK6 (unknown origin) to IC50 for GSK-3 beta (unknown origin) by ATP competitive based analysis
[29] = Drug uptake in mouse BV-2 cells at 25 uM incubated for 1 hr measured per million cells by LC-MS/MS analysis; format: ADME, cell-based; settings: bv-2, 1 h
[30] = Oral bioavailability in Sprague-Dawley rat at 10 mg/kg measured upto 24 hrs by LC-MS/MS analysis; format: ADME, organism-based; settings: in vivo
Homo sapiens [31] = species on record: Homo sapiens; assay: Selectivity index, ratio of IC50 for JNK2 (unknown origin) to IC50 for GSK-3 beta (unknown origin) by ATP competitive based analysis
[32] = AUC (0 to infinity) in Sprague-Dawley rat at 10 mg/kg, po by LC-MS/MS analysis; format: ADME, organism-based; set-up: route oral, time infinity, dose 10 mg/kg; settings: in vivo
[33] = molecular target: Cyclin-dependent kinase 9 (Homo sapiens, UniProt P50750); assay: Inhibition of CDK9 (unknown origin) by ATP competitive based analysis
[34] = molecular target: Cyclin-dependent kinase 2 (Homo sapiens, UniProt P24941); assay: Inhibition of CDK2 (unknown origin) by ATP competitive based analysis
[35] = Plasma concentration in ICR mouse at 15 mg/kg, po measured after 90 mins by LC-MS/MS analysis; format: ADME, organism-based
[36] = molecular target: Mitogen-activated protein kinase 1 (Homo sapiens, UniProt P28482); assay: Inhibition of ERK2 (unknown origin) by ATP competitive based analysis
Homo sapiens [37] = species on record: Homo sapiens; assay: Selectivity index, ratio of IC50 for CDK7 (unknown origin) to IC50 for GSK-3 beta (unknown origin) by ATP competitive based analysis
[38] = Clearance in Sprague-Dawley rat at 10 mg/kg, po measured upto 24 hrs by LC-MS/MS analysis; format: ADME, organism-based; settings: in vivo

Chain of Glycogen synthase kinase-3 beta (Mus musculus) (Q9WV60 whole entry, looked up): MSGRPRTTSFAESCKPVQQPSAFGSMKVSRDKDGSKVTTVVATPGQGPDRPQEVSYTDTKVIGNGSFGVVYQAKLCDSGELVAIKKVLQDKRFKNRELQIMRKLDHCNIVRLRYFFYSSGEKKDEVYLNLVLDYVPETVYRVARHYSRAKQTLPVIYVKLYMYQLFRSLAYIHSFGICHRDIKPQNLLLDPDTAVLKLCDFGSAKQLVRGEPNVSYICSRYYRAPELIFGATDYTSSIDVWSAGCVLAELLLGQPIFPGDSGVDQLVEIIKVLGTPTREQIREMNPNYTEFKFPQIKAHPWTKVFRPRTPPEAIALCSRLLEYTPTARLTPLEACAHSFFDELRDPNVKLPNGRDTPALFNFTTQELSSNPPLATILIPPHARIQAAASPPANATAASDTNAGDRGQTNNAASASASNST
T1 sequence (P49841 whole entry): as the sequence (Q9WV60 whole entry, looked up) above, with P390T, A392T, T400A, A402T counted along it
Chain of Mitogen-activated protein kinase 1 (P28482 whole entry): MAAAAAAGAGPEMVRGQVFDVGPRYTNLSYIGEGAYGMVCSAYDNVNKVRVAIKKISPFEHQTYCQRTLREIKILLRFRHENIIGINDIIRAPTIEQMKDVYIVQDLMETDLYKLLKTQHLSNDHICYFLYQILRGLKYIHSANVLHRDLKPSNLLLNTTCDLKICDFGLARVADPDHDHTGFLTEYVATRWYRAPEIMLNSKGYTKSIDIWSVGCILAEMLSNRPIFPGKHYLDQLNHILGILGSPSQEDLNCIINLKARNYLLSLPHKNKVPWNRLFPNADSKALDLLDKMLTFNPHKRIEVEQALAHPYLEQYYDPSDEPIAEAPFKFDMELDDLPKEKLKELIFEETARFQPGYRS
Chain of Acetylcholinesterase (P22303 whole entry): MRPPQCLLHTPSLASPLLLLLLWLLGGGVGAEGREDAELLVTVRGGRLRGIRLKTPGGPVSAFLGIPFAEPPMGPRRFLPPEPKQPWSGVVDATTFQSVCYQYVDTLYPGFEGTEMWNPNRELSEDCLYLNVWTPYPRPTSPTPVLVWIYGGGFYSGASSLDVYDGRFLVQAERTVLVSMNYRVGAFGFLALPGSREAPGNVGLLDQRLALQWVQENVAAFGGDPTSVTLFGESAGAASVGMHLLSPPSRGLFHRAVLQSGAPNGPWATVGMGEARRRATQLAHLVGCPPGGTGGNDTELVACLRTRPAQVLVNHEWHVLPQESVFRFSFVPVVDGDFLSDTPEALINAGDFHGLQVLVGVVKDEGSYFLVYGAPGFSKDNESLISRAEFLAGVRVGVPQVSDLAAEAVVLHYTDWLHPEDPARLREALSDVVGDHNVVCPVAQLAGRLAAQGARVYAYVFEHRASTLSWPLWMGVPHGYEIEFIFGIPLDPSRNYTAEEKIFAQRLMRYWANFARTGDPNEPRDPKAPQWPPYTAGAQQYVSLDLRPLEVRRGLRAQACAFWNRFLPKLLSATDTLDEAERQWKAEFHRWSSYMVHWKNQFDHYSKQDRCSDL
Chain of Mitogen-activated protein kinase 13 (O15264 whole entry): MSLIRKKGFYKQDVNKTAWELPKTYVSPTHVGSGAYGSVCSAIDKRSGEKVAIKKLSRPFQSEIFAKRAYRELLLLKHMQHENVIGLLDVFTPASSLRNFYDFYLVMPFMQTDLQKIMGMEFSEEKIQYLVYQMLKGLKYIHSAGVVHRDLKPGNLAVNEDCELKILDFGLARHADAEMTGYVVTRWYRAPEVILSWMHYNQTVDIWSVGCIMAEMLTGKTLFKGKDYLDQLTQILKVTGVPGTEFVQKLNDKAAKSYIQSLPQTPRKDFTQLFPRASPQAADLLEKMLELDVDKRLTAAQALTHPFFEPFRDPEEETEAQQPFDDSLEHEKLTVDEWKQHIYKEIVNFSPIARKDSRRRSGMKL
Chain of Mitogen-activated protein kinase 14 (Q16539 whole entry): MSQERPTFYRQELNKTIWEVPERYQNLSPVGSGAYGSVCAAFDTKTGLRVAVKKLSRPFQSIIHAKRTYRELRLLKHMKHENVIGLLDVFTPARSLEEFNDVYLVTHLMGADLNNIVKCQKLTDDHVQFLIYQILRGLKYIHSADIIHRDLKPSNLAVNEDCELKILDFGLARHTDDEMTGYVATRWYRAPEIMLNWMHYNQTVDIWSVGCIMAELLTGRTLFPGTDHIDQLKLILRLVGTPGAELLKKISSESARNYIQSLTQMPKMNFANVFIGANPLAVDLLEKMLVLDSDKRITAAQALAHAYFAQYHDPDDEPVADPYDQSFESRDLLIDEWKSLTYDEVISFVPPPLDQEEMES
Chain of Mitogen-activated protein kinase 10 (P53779 whole entry): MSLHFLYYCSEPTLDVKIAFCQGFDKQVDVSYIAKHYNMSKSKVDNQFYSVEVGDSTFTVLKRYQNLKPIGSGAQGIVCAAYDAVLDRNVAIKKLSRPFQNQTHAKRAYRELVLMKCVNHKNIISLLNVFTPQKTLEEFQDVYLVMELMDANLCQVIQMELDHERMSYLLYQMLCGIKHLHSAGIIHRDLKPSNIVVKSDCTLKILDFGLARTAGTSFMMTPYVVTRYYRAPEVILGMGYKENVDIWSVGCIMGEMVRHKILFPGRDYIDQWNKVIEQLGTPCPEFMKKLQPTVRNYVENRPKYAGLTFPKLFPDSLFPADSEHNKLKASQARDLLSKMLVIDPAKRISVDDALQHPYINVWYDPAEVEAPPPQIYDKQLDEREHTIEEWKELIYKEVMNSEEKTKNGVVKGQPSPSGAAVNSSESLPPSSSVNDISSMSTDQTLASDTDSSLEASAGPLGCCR
Chain of Mitogen-activated protein kinase 12 (P53778 whole entry): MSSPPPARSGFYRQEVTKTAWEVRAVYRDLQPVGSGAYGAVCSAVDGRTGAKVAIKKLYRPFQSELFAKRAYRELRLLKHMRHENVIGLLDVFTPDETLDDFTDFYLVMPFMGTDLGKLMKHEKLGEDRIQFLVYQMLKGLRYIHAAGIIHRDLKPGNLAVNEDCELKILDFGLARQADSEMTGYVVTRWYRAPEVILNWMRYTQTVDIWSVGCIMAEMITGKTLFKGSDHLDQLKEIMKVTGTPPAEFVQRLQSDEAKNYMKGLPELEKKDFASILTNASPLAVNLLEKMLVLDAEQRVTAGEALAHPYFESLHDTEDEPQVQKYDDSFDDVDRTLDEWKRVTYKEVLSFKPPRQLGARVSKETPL
Chain of Cyclin-dependent kinase 9 (P50750 whole entry): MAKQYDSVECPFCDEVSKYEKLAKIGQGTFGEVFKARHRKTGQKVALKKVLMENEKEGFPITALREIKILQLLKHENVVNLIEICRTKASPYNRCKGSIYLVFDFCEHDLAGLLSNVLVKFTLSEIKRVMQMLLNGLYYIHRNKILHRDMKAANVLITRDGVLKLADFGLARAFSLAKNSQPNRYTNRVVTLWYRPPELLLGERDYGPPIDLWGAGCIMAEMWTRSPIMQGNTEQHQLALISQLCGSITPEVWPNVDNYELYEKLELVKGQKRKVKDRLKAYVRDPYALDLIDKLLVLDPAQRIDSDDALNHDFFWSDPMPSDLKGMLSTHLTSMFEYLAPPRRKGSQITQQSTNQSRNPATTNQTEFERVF
Chain of Mitogen-activated protein kinase 3 (P27361 whole entry): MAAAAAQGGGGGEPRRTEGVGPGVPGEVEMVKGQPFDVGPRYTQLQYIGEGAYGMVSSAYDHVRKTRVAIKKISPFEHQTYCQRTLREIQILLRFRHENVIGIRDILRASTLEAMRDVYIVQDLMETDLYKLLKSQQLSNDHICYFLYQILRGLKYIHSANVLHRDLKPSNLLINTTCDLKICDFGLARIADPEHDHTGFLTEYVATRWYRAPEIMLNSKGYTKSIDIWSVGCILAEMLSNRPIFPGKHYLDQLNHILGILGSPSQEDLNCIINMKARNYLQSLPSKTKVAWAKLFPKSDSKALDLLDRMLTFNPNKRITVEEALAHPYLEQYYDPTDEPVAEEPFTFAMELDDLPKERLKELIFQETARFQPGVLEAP
Chain of Glycogen synthase kinase-3 alpha (P49840 whole entry): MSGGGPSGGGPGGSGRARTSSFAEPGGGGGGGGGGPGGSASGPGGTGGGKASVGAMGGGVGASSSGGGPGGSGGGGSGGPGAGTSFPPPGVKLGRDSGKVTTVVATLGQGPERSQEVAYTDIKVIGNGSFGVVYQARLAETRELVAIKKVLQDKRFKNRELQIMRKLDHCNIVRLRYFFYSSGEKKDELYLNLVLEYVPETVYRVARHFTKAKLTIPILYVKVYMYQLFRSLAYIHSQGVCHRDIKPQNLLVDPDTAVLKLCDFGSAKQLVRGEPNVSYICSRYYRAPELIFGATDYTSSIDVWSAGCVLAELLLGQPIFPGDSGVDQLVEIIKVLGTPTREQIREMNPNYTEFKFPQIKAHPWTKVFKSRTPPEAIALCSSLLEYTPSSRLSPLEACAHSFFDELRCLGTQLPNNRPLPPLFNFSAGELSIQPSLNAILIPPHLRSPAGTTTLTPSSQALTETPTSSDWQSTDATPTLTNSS

**Q.** With `NC(=O)c1sc(-c2ccnc(NC(=O)C3CC3)c2)nc1OCCCC1CCN(Cc2ccc(F)cc2)CC1` as the molecule, how does the IC50 [1] read?
**A.** Its IC50 is 12 nM.

**Q.** And the Activity [2]?
**A.** Its Activity is 91.1%.

**Q.** And the Activity (BV-2 [3])?
**A.** The Activity was “Dose-dependent effect”.

**Q.** And the IC50 [4]?
**A.** Its IC50 is over 300 nM.

**Q.** And the Vd [5]?
**A.** Its Vd is 15.8 L/kg.

**Q.** And the Ratio IC50 (Homo sapiens [6])?
**A.** The Ratio IC50 was 200.

**Q.** What about the Imax [7] of the same molecule?
**A.** The Imax was 93%.

**Q.** What about the Ratio IC50 (Homo sapiens [8]) of the same molecule?
**A.** Its Ratio IC50 is 200.

**Q.** What about the inhibition at 8 µM (BV-2 [9]) of the same molecule?
**A.** The inhibition at 8 µM was 100%.

**Q.** What about the AUC(0-t) [10] of the same molecule?
**A.** Its AUC(0-t) is 1160 ng·h/mL.

**Q.** What about the Activity (BV-2 [11]) of the same molecule?
**A.** The Activity was “Active”.

**Q.** And the Ratio IC50 (Homo sapiens [12])?
**A.** The Ratio IC50 was 200.

**Q.** And the IC50 [13]?
**A.** The IC50 was 16.1 nM.

**Q.** And the Activity [14]?
**A.** The Activity was “Non-Toxic”.

**Q.** What about the Activity [15] of the same molecule?
**A.** Its Activity is 63.3%.

**Q.** And the IC50 [16]?
**A.** The IC50 was 3 nM.

**Q.** And the IC50 (Acetylcholinesterase)?
**A.** Its IC50 is 310 nM.

**Q.** And the half-life [17]?
**A.** The half-life was 5.8 h.

**Q.** What about the MRT last at 24 h [18] of the same molecule?
**A.** The MRT last at 24 h was 9.9 h.

**Q.** What about the Ratio IC50 (Homo sapiens [19]) of the same molecule?
**A.** Its Ratio IC50 is 200.

**Q.** What about the Ratio IC50 (Homo sapiens [20]) of the same molecule?
**A.** The Ratio IC50 was 200.

**Q.** What about the Ratio IC50 (Homo sapiens [21]) of the same molecule?
**A.** Its Ratio IC50 is 200.

**Q.** And the IC50 [22]?
**A.** Its IC50 is over 300 nM.

**Q.** What about the Activity (Mus musculus) of the same molecule?
**A.** Its Activity is “Active”.

**Q.** What about the IC50 [23] of the same molecule?
**A.** Its IC50 is over 300 nM.

**Q.** What about the Activity (BV-2 [24]) of the same molecule?
**A.** Its Activity is “Non-Toxic”.

**Q.** And the Activity [25]?
**A.** The Activity was “Non-Toxic”.

**Q.** And the IC50 [26]?
**A.** The IC50 was over 300 nM.

**Q.** And the IC50 [27]?
**A.** Its IC50 is over 300 nM.

**Q.** And the Ratio IC50 (Homo sapiens [28])?
**A.** Its Ratio IC50 is 200.

**Q.** And the Drug uptake [29]?
**A.** The Drug uptake was 722 ng.

**Q.** And the bioavailability [30]?
**A.** Its bioavailability is 30.3%.

**Q.** And the Ratio IC50 (Homo sapiens [31])?
**A.** Its Ratio IC50 is 200.

**Q.** And the AUC(0-inf) [32]?
**A.** Its AUC(0-inf) is 1260 ng·h/mL.

**Q.** What about the IC50 [33] of the same molecule?
**A.** The IC50 was 108 nM.

**Q.** What about the IC50 [34] of the same molecule?
**A.** Its IC50 is over 300 nM.

**Q.** What about the concentration at 1.5 h [35] of the same molecule?
**A.** Its concentration at 1.5 h is 265 ng/mL.

**Q.** And the IC50 [36]?
**A.** The IC50 was over 300 nM.

**Q.** And the Ratio IC50 (Homo sapiens [37])?
**A.** The Ratio IC50 was 200.

**Q.** And the CL/F [38]?
**A.** The CL/F was 112 mL/min/kg.
